Reference: patent publication US6426343B1, “Preparation and use of a specific GABA-Aα5 receptor ligand for treatment of Alzheimer's disease” (Merck Sharp & Dohme Ltd., priority 1995, dated 2002)

What was measured:
α5-containing receptors = assay: Occupancy of α5-containing receptors calculated by Clarke's equation; assay type: in vivo, mouse
Protocol: If it is assumed that the percentage inhibition of in vivo [^3H]Ro 15-1788 binding is a measure of receptor occupancy then the concentration at the receptor site in brain can be calculated according to Clarke's equation (occupancy=[drug]/[drug]+Ki). Substituting the occupancy determined at α1 and α2/3-containing receptors, the concentration of FG 8094 available at BZ binding sites in […] is 7.8 nM and 13.2 nM respectively. Occupancy at α5-containing receptors cannot be measured directly because of the low abundance of the receptor, but it can be calculated using the concentration of drug and binding affinity using Clarke's equation. This predicts 95-97 % occupancy of α5-containing receptors 30 min after administration of FG 8094 (1 mg/kg).

α5β3γ2 = target: T1, α5β3γ2 (Homo sapiens, UniProt P18507+P31644); assay: Radioligand binding, membranes of stably transfected cells
T1 construct: expressed in transfected cells
T1 sequence (P31644 32-462): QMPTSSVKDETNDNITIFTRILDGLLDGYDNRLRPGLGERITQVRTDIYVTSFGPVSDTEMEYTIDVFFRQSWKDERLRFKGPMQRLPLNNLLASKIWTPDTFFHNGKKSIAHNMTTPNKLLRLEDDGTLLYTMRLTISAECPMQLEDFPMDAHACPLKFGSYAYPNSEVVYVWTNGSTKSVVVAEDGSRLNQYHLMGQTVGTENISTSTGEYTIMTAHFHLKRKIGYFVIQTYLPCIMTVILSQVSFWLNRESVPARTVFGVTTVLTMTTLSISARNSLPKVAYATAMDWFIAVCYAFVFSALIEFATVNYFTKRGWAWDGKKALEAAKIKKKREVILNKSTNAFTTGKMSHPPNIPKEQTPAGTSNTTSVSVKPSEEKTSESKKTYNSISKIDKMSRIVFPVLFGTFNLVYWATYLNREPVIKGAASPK
T1 sequence (P28472 26-473 partner): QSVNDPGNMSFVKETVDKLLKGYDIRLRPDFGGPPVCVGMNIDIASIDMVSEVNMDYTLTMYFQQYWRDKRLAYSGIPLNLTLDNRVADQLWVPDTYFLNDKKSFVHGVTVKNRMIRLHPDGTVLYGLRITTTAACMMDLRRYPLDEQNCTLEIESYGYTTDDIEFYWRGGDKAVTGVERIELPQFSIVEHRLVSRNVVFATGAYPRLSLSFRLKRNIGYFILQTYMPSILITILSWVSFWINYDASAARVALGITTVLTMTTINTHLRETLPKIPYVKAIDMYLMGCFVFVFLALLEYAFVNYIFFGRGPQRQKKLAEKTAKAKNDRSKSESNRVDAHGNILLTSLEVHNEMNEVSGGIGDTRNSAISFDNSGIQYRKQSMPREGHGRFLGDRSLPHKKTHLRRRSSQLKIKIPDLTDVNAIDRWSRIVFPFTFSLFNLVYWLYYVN
T1 sequence (P18507 40-467 isoform P18507-1 limits assumed): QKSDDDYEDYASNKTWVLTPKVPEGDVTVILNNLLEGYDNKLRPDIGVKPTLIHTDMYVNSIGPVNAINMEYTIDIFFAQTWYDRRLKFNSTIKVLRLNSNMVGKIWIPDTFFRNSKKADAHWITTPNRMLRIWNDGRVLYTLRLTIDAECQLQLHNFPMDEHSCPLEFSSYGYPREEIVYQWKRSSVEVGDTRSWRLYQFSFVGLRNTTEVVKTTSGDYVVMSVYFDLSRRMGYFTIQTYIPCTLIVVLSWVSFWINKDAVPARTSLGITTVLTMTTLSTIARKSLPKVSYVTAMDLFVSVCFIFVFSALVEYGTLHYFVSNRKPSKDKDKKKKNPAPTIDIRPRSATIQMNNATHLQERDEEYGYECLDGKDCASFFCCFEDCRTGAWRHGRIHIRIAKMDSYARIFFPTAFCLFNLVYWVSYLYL

rats = assay: Pro-convulsant testing, chronic treatment, PTZ infusion; assay type: in vivo, rat; conditions: 0.1, 0.3, 1.0 mg/kg IP, 24 doses, final dose 48 h before testing
Protocol: The rats used in this study received chronic treatment with FG 8094 during a MWM experiment. The rats were dosed IP once per day (Monday to Friday) and received a total of 24 doses. Following each drug administration rats were tested in a MWM and received the final dose of drug 48 h prior to convulsant testing. The subjects were assigned to one of four treatment groups (n=8) and given either Vehicle, 0.1, 0.3, or 1.0 mg/kg of FG 8094.
On the day of proconvulsant testing, the rats were restrained and pentylenetetrazole (PTZ, 40.0 mg/ml) was infused as described above. The latency(s) to both clonic and tonic (full extension) convulsion was recorded. Latency data were transformed to yield the dose of PTZ needed to reach the threshold of both clonic and tonic seizures.

Male PVG hooded rats = assay: Morris watermaze cognitive studies; assay type: in vivo, rat
Protocol: FG 8094 was synthesised by the Merck, Sharp and Dohme Neuroscience Research Centre's medicinal chemistry group and was suspended in 0.5% CMC. Vehicle or FG 8094 was administered IP 30 mins before the beginning of the first training trial.
Male PVG hooded rats (Bantin & Kingman, Hull U.K.), weighting approximately 300 g, were housed in groups of four with free access to food and water. The animals were maintained on a 12/12 h light-dark cycle, with the lights on at 07:00 h.
The Morris watermaze consists of a white, fibre-glass circular pool, of diameter 2 m, filled with an opaque mixture of water and white dye (E308, Morton International) maintained at 26-28° C. […] A hidden platform (13×13 cm) submerged 2 cm below the water surface was placed in the middle of the NE quadrant.
A closed-circuit video camera, fitted with a wide-angle lens, was mounted directly above the centre of the pool and connected to an image analyser which digitised the image. The digital information was relay to an Archimedes microcomputer running ‘Watermaze’ a software package supplied by Paul Fray LTD (Cambridge, UK). The software package provided the following measures: latency to reach the platform, length of path taken, average swimming speed, the time spent and the total distance travelled in the target quadrant.
The rats were assigned to four treatment groups (n=8): Vehicle, 0. 1, 0.3, 1.0 mg/kg FG 8094. During the acquisition phase of the experiment all the groups were given four trials per day. During this time the hidden platform was submerged in the NE quadrant of the watermaze. The rat was taken from the home cage and placed into the watermaze at one of four quasi-randomly determined locations (‘North’, ‘East’, ‘South’, or ‘West’) with its head facing, and almost touching, the pool wall. Trials began when the rat was released by the experimenter and ended when the rat climbed onto the platform and the mean escape latency was recorded. The maximum trial length was 60 s. If by that time the rat had not climbed on to the platform the trial ended automatically, the experimenter placed the rat on the platform and an escape latency of 60 s was recorded. The rat remained on the platform for 30 s and was then removed to a high-sided opaque plastic container for a further 30 s, (inter-trial interval, ITI). At the end of the ITI the rat was placed into the pool again, but at a different location and upon release the next trial began. This procedure was repeated until four trials had been completed.
Normally, the escape latency declines over several days of training from 60 s to around 20 s. A ‘probe trial’ assess the rat's spatial memory for the location of the hidden platform. During this trial the platform was removed from the watermaze and the rat was allowed to search the pool for 60 s before it was removed from the pool. If the treatment improves the rat's memory for the location of the platform, it will spend longer searching the quadrant in which the platform had previously been hidden (NE) than a rat given vehicle treatment.
Deficits in performance that might be due to drug-induced side-effects (such as blurred vision or motoric deficits resulting in an impaired ability to swim) were assessed using cued recall. In this procedure, the platform was also placed in the NE quadrant, but was raised 3 cm above the water level and thus visible to the rat. If the treatment has no effects on the mean escape latencies to the visible platform, then any group differences in mean escape latencies to an invisible platform can be attributed to an effect on cognitive process.
Six days following the probe trial, during which time the rats were not expose to the watermaze or administered FG 8094, the rats were again tested with the platform submerged in the NE quadrant using the acquisition protocol.
Reversal training was identical to the acquisition phase of the experiment with the exception that the platform was submerged in the middle of the SW quadrant.

CCOC(=O)c1ncn2c1[C@@H]1CCCN1C(=O)c1cc(OC)ccc1-2 [FG 8094, 9H-imidazo[1,5-a]pyrrolo[2,1-C][1,4]benzodiazepine-1-carboxylic acid, 11, 12, 13, 13a-tetrahydro-7-methoxy-9-oxo-, ethyl ester, (S)-(9CI)]
occupancy of α5-containing receptors (α5-containing receptors; 1.0 mg/kg): virtually all | predicted occupancy of α5-containing receptors (α5-containing receptors; 30 min after 1 mg/kg, Clarke's equation): 95-97% | Ki (α5β3γ2): 0.45 ± 0.15 nM | selectivity for α5-containing receptors over α1 (α5β3γ2; over α1): 107 fold | selectivity for α5-containing receptors over α2 (α5β3γ2; over α2): 60 fold | selectivity for α5-containing receptors over α3 (α5β3γ2; over α3): 53 fold | selectivity for α5-containing receptors over α6 (α5β3γ2; over α6): 184 fold | threshold dose of PTZ to clonic or tonic seizure (rats): no significant effect of treatment | cued recall, mean escape latency to the visible platform (Male PVG hooded rats; 0.1, 0.3, 1.0 mg/kg IP): no significant effect of dose | probe trial, time spent searching the platform quadrant (Male PVG hooded rats; 0.1, 0.3, 1.0 mg/kg IP): no difference in the amount of time the control and drug groups spent searching the quadrant | cued recall, mean path length (Male PVG hooded rats; 0.1, 0.3, 1.0 mg/kg IP, post hoc Newman-Keuls): vehicle group traversed a significantly longer path than all the groups given FG 8094 | mean escape latencies, acquisition trials (Male PVG hooded rats; 0.3 and 1.0 mg/kg IP, nine day training): appear to be shorter than the vehicle control group or the 0.1 mg/kg group, the observation was not confirmed by Newman Keul post hoc tests | mean swimming speed during escape to the hidden platform (Male PVG hooded rats; acquisition trials, 0.1, 0.3, 1.0 mg/kg IP): no significant effect of dose | reversal learning, mean escape latency (Male PVG hooded rats; platform moved to Southwest quadrant, first reversal day, p<0.05): mean escape latency of the vehicle group was significantly longer than all of the FG 8094 groups | recall test, mean escape latency (Male PVG hooded rats; six days after probe trial, 0.1, 0.3, 1.0 mg/kg, p<0.05): mean escape latency of the vehicle group was longer than any of the FG 8094 groups
